Assay: xn = mol fraction of the nth substance listed
Conditions: 100 kPa, Liquid; for viscosity: Concentric cylinders viscometry; for mass density: Vibrating tube method

CCCCCCCCCO [nonan-1-ol] + CCCCOC(C)=O
Conditions	mass density [kg/m3]	viscosity [mPa·s]
293.15 K, x2 = 0	827.5	11.41
293.15 K, x2 = 0.0812	830.4	10.09
293.15 K, x2 = 0.1601	833.4	8.95
293.15 K, x2 = 0.2399	836.7	7.89
293.15 K, x2 = 0.3499	841.6	6.6
293.15 K, x2 = 0.4399	845.9	5.65
293.15 K, x2 = 0.5599	852.2	4.46
293.15 K, x2 = 0.6501	857.3	3.65
293.15 K, x2 = 0.7399	862.7	2.89
293.15 K, x2 = 0.8499	870	1.97
293.15 K, x2 = 0.9452	876.8	1.18
298.15 K, x2 = 0	824	9.43
298.15 K, x2 = 0.0812	826.7	8.31
298.15 K, x2 = 0.1601	829.6	7.35
298.15 K, x2 = 0.2399	832.8	6.49
298.15 K, x2 = 0.3499	837.4	5.4
298.15 K, x2 = 0.4399	841.6	4.62
298.15 K, x2 = 0.5599	847.7	3.64
298.15 K, x2 = 0.6501	852.7	2.99
298.15 K, x2 = 0.7399	858	2.37
298.15 K, x2 = 0.8499	865.1	1.65
298.15 K, x2 = 0.9452	871.8	1.03
303.15 K, x2 = 0	820.5	7.86
303.15 K, x2 = 0.0812	822.9	6.89
303.15 K, x2 = 0.1601	825.7	6.07
303.15 K, x2 = 0.2399	828.7	5.33
303.15 K, x2 = 0.3499	833.1	4.43
303.15 K, x2 = 0.4399	837.2	3.79
303.15 K, x2 = 0.5599	843.1	3
303.15 K, x2 = 0.6501	847.9	2.46
303.15 K, x2 = 0.7399	853	1.97
303.15 K, x2 = 0.8499	860	1.4
303.15 K, x2 = 0.9452	866.5	0.91
308.15 K, x2 = 0	817.1	6.61
308.15 K, x2 = 0.0812	819.4	5.78
308.15 K, x2 = 0.1601	821.9	5.08
308.15 K, x2 = 0.2399	824.7	4.44
308.15 K, x2 = 0.3499	828.9	3.68
308.15 K, x2 = 0.4399	832.8	3.14
308.15 K, x2 = 0.5599	838.4	2.49
308.15 K, x2 = 0.6501	843.1	2.07
308.15 K, x2 = 0.7399	848.1	1.67
308.15 K, x2 = 0.8499	854.9	1.21
308.15 K, x2 = 0.9452	861.4	0.81
313.15 K, x2 = 0	813.6	5.59
313.15 K, x2 = 0.0812	815.5	4.87
313.15 K, x2 = 0.1601	817.7	4.26
313.15 K, x2 = 0.2399	820.2	3.72
313.15 K, x2 = 0.3499	824.2	3.08
313.15 K, x2 = 0.4399	827.8	2.63
313.15 K, x2 = 0.5599	833.2	2.11
313.15 K, x2 = 0.6501	837.8	1.77
313.15 K, x2 = 0.7399	842.8	1.45
313.15 K, x2 = 0.8499	849.5	1.07
313.15 K, x2 = 0.9452	856	0.74
318.15 K, x2 = 0	810.1	4.78
318.15 K, x2 = 0.0812	811.8	4.15
318.15 K, x2 = 0.1601	813.8	3.62
318.15 K, x2 = 0.2399	816.1	3.16
318.15 K, x2 = 0.3499	819.7	2.61
318.15 K, x2 = 0.4399	823	2.24
318.15 K, x2 = 0.5599	828.3	1.8
318.15 K, x2 = 0.6501	832.7	1.5
318.15 K, x2 = 0.7399	837.5	1.24
318.15 K, x2 = 0.8499	844.3	0.93
318.15 K, x2 = 0.9452	850.8	0.67
323.15 K, x2 = 0	806.5	4.1
323.15 K, x2 = 0.0812	807.9	3.56
323.15 K, x2 = 0.1601	809.7	3.11
323.15 K, x2 = 0.2399	811.8	2.71
323.15 K, x2 = 0.3499	815.2	2.24
323.15 K, x2 = 0.4399	818.4	1.91
323.15 K, x2 = 0.5599	823.5	1.54
323.15 K, x2 = 0.6501	827.8	1.29
323.15 K, x2 = 0.7399	832.6	1.08
323.15 K, x2 = 0.8499	839.1	0.83
323.15 K, x2 = 0.9452	845.6	0.61

Reference: the NIST ThermoML archive (doi:10.1021/acs.jced.8b00524)
